Assay results as given in ChEMBL document CHEMBL3994583, “Discovery of 4-[(5-arylidene-4-oxothiazolidin-3-yl)methyl]benzoic acid derivatives active as novel potent allosteric inhibitors of protein tyrosine phosphatase 1B: In silico studies and in vitro evaluation as insulinomimetic and anti-inflammatory agents” (Eur J Med Chem, 2017).
Activity calls are given as the source filed them. The calls are words filed in the database; no cut-off is given here.

Tests used:
[1] = target: T1, Tyrosine-protein phosphatase non-receptor type 1 (Homo sapiens) (UniProt P18031); experiment: Inhibition of PTP1B in human HepG2 cells assessed as increase in phosphorylation of IRbeta at Tyr1162/1163 residues at 50 uM after 30 mins by Western blot method; assay type: cell-based
T1 sequence (whole entry): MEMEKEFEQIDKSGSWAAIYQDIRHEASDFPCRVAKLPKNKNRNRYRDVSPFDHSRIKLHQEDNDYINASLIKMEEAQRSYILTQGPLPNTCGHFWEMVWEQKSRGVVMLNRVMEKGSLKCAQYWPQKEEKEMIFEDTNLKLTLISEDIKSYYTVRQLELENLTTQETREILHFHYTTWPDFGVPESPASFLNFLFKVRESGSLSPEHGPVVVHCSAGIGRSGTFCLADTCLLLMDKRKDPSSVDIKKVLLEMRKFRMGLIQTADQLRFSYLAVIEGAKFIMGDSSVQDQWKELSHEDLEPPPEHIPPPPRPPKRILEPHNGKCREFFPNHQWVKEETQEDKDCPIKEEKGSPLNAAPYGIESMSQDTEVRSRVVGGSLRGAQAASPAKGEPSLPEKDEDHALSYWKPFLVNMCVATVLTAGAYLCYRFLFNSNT

[2] = target: T2, Tyrosine-protein phosphatase non-receptor type 1 (Homo sapiens, UniProt P18031); experiment: Inhibition of full length recombinant human PTP1B using pNPP as substrate by spectrophotometric method
T2 sequence (P18031 whole entry): T1 sequence (whole entry)

[3] = target: T1, Tyrosine-protein phosphatase non-receptor type 1 (Homo sapiens); experiment: Reversible inhibition of full length recombinant human PTP1B assessed as recovery of enzyme activity up to 50 uM using pNPP as substrate preincubated for 1 hr followed by substrate addition by spectrophotometric method; set-up: scale not given: the % may be the effect or the level left
[4] = target: T2, Tyrosine-protein phosphatase non-receptor type 1; experiment: Competitive inhibition of full length recombinant human PTP1B assessed as enzyme-inhibitor complex using pNPP as substrate by double reciprocal plot method
[5] = target: T3, Tyrosine-protein phosphatase non-receptor type 1 (Mus musculus) (UniProt P35821); experiment: Inhibition of PTP1B in mouse C2C12 cells assessed as increase in phosphorylation of Akt at Ser473 residue at 50 uM after 30 mins by Western blot method; assay type: cell-based
T3 sequence (whole entry): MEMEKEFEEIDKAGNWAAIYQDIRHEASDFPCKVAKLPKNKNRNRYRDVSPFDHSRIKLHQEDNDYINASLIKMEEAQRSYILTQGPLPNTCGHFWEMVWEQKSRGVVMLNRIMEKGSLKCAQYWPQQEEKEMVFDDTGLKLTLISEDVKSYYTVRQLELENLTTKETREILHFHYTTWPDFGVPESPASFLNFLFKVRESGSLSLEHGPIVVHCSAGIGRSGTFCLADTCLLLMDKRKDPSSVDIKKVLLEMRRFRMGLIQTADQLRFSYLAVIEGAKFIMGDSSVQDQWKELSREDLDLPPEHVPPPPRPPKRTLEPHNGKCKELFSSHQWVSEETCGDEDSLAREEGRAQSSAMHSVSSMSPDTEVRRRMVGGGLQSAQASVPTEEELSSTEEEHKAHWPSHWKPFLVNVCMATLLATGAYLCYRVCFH

NCTC-2544 [6] = experiment: Cytotoxicity against human NCTC-2544 cells assessed as reduction in cell viability at 10 uM by MTT assay; assay type: cell-based; conditions: nctc-2544, 10 µM
C2C12 = experiment: Cytotoxicity against mouse C2C12 cells assessed as reduction in cell viability after 24 hrs by MTT assay; assay type: cell-based; conditions: c2c12, 24 h
[7] = target: T1, Tyrosine-protein phosphatase non-receptor type 1 (Homo sapiens); experiment: Inhibition of PTP1B in human HepG2 cells assessed as increase in phosphorylation of Akt at Ser473 residue at 50 uM after 30 mins by Western blot method; assay type: cell-based
HepG2 = experiment: Cytotoxicity against human HepG2 cells assessed as reduction in cell viability at 25 uM after 24 hrs by MTT assay; assay type: cell-based; conditions: hepg2, 24 h
[8] = target: T3, Tyrosine-protein phosphatase non-receptor type 1 (Mus musculus); experiment: Inhibition of PTP1B in mouse C2C12 cells assessed as increase in phosphorylation of IRbeta at Tyr1162/1163 residues at 50 uM after 30 mins by Western blot method; assay type: cell-based
NCTC-2544 [9] = experiment: Anti-inflammatory activity in IFN-gamma and histamine-stimulated human NCTC-2544 cells assessed as reduction in ICAM-1 protein expression by Western blot method; assay type: functional, cell-based
NCTC-2544 [10] = experiment: Anti-inflammatory activity in IFN-gamma and histamine-stimulated human NCTC-2544 cells assessed as reduction in COX-2 protein expression by Western blot method; assay type: functional, cell-based
NCTC-2544 [11] = experiment: Anti-inflammatory activity in IFN-gamma and histamine-stimulated human NCTC-2544 cells assessed as reduction in iNOS protein expression by Western blot method; assay type: functional, cell-based
NCTC-2544 [12] = experiment: Cytotoxicity against human IFN-gamma and histamine-stimulated NCTC-2544 cells assessed as reduction in cell viability at 10 uM by MTT assay; assay type: cell-based; conditions: nctc-2544, 10 µM
[13] = target: T1, Tyrosine-protein phosphatase non-receptor type 1 (Homo sapiens); experiment: Competitive inhibition of full length recombinant human PTP1B assessed as enzyme-inhibitor complex up to 8 uM using pNPP as substrate by double reciprocal plot method
[14] = target: T1, Tyrosine-protein phosphatase non-receptor type 1 (Homo sapiens); experiment: Irreversible inhibition of full length recombinant human PTP1B assessed as recovery of enzyme activity up to 50 uM using pNPP as substrate preincubated for 1 hr followed by substrate addition by spectrophotometric method; set-up: scale not given: the % may be the effect or the level left
[15] = target: T2, Tyrosine-protein phosphatase non-receptor type 1; experiment: Mixed non-competitive inhibition of full length recombinant human PTP1B assessed as enzyme-substrate-inhibitor complex using pNPP as substrate by double reciprocal plot method
[16] = target: T1, Tyrosine-protein phosphatase non-receptor type 1 (Homo sapiens); experiment: Mixed-type inhibition of full length recombinant human PTP1B assessed as enzyme-substrate-inhibitor complex at 3 to 7.5 uM using pNPP as substrate by double reciprocal plot method
[17] = target: T1, Tyrosine-protein phosphatase non-receptor type 1 (Homo sapiens); experiment: Mixed-type inhibition of full length recombinant human PTP1B assessed as enzyme-substrate-inhibitor complex at 3 to 9 uM using pNPP as substrate by double reciprocal plot method
[18] = target: T1, Tyrosine-protein phosphatase non-receptor type 1 (Homo sapiens); experiment: Inhibition of PTP1B in human HepG2 cells assessed as increase in phosphorylation of IRbeta at Tyr1162/1163 residues at 50 uM after 180 mins by Western blot method; assay type: cell-based
[19] = target: T1, Tyrosine-protein phosphatase non-receptor type 1 (Homo sapiens); experiment: Inhibition of PTP1B in human HepG2 cells assessed as increase in phosphorylation of IRbeta at Tyr1162/1163 residues at 50 uM by Western blot method; assay type: cell-based; conditions: TDE = time-dependent effect
[20] = target: T1, Tyrosine-protein phosphatase non-receptor type 1 (Homo sapiens); experiment: Competitive inhibition of full length recombinant human PTP1B assessed as enzyme-inhibitor complex up to 6 uM using pNPP as substrate by double reciprocal plot method

SMILES	inhibition [1]	IC50 [2] [µM]	Activity [3] [%]	inhibition [5]	inhibition [8]	Activity [14] [%]	Activity (NCTC-2544 [6])	Activity (C2C12)	Activity (HepG2)	Activity (NCTC-2544 [9])	Activity (NCTC-2544 [10])	Activity (NCTC-2544 [11])	Activity (NCTC-2544 [12])	further results
O=C(O)c1ccc(CN2C(=O)/C(=C/c3cccc(OCc4ccccc4)c3)SC2=S)cc1	inactive	5.7	75 to 100				Non-Toxic	Non-Toxic	Non-Toxic	Active	Active	Active	Non-Toxic	inhibition [13]: Active
O=C(O)c1ccc(CN2C(=O)/C(=C/c3ccc(OCc4ccccc4)cc3)SC2=S)cc1	inactive	5	75 to 100				Non-Toxic	Non-Toxic	Non-Toxic	Active	Active	Active	Non-Toxic	inhibition [16]: Active
O=C(O)c1ccc(CN2C(=O)/C(=C/c3ccc(OCCc4ccccc4)cc3)SC2=S)cc1	inactive	3.5	75 to 100				Toxic	Non-Toxic	Non-Toxic		Active	Active	Toxic	inhibition [13]: Active
O=C(O)c1ccc(CN2C(=O)/C(=C/c3ccc(Oc4ccccc4)cc3)SC2=S)cc1	inactive	10.6	75 to 100				Non-Toxic	Non-Toxic	Non-Toxic	Active	inactive	Active	Non-Toxic	inhibition [17]: Active
O=C(O)c1ccc(CN2C(=O)/C(=C/c3cccc(Oc4ccccc4)c3)SC2=S)cc1	inactive	7.1	75 to 100				Non-Toxic	Non-Toxic	Non-Toxic	Active	Active	Active	Non-Toxic	inhibition [17]: Active
O=C(O)c1ccc(CN2C(=O)/C(=C/c3cccc(OCCc4ccccc4)c3)SC2=S)cc1	inactive	1.9	75 to 100				Toxic	Non-Toxic	Non-Toxic	Active	Active	Active	Toxic	inhibition [20]: Active

Further lines, with some results ahead:

inhibition [1]	IC50 [2] [µM]	Activity [3] [%]	inhibition [5]	inhibition [8]	Activity [14] [%]	SMILES	Activity (NCTC-2544 [6])	Activity (C2C12)	Activity (HepG2)	Activity (NCTC-2544 [9])	Activity (NCTC-2544 [10])	Activity (NCTC-2544 [11])	Activity (NCTC-2544 [12])	further results
Active	1.9	75 to 100	inactive	Active		O=C(O)c1ccc(CN2C(=O)/C(=C/c3ccc(OCc4ccccc4)cc3)S/C2=N\c2ccc(F)cc2)cc1	Toxic	Non-Toxic	Non-Toxic					Ki [4]: 1.4 µM; inhibition [7]: Active
	14.5		inactive	Active	10 to 50	O=C(O)c1ccc(CN2C(=O)/C(=C/c3cccc(OCCc4ccccc4)c3)S/C2=N\c2ccc(F)cc2)cc1	Toxic	Non-Toxic	Non-Toxic					Ki [15]: 2.3 µM
Active	4.2		inactive	Active	10 to 50	O=C(O)c1ccc(CN2C(=O)/C(=C/c3cccc(OCc4ccccc4)c3)S/C2=N\c2ccc(F)cc2)cc1	Toxic	Non-Toxic	Non-Toxic					Ki [15]: 1.5 µM; inhibition [7]: Active
	5.1		Active	Active	10 to 50	O=C(O)c1ccc(CN2C(=O)/C(=C/c3ccc(Oc4ccccc4)cc3)S/C2=N\c2ccc(F)cc2)cc1	Toxic	Non-Toxic	Non-Toxic					Ki [4]: 9.9 µM; inhibition [18]: inactive; inhibition [19]: Tde; inhibition [7]: Active
	1.5		inactive	Active	10 to 50	O=C(O)c1ccc(CN2C(=O)/C(=C/c3ccc(OCCc4ccccc4)cc3)S/C2=N\c2ccc(F)cc2)cc1	Toxic	Non-Toxic	Non-Toxic					Ki [15]: 1 µM
